What all share (format): functional, cell-based
Assay [1] has as its target T1, Muscarinic acetylcholine receptor M1 (Homo sapiens) (UniProt P11229).
T1 sequence (whole entry): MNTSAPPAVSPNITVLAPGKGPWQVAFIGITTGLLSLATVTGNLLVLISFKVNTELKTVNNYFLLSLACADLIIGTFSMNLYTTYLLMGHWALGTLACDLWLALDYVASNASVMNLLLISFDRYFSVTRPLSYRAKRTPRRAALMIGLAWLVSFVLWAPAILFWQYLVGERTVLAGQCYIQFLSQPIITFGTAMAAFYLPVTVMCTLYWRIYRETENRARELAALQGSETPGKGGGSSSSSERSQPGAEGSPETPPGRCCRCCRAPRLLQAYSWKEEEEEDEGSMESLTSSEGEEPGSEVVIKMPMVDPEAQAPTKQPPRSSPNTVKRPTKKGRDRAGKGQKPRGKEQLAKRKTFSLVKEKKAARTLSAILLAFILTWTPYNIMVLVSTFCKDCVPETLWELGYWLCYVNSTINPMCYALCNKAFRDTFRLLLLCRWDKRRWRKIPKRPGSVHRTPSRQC
As to the kind of experiment: Agonist activity at human muscarinic M1 acetylcholine receptor expressed in CHO cells assessed as calcium mobilization at 0.3 uM by FLIPR assay.

Assay [2] deals with T2, Muscarinic acetylcholine receptor M2 (Homo sapiens) (UniProt P08172).
T2 sequence (whole entry): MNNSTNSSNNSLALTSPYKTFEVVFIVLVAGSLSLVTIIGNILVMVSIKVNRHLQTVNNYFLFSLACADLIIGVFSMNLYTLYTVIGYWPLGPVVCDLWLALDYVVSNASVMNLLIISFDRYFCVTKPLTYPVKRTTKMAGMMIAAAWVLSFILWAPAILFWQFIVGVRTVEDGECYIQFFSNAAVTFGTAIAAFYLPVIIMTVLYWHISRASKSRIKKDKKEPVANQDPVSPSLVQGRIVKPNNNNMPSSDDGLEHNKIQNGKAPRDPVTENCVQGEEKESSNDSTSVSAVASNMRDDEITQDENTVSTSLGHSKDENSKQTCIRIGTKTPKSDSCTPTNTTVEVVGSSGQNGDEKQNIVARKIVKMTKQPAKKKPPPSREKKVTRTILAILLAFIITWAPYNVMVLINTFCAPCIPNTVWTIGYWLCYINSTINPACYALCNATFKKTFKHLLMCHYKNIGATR
As to the kind of experiment: Agonist activity at human muscarinic M2 acetylcholine receptor expressed in CHO cells co-expressing Galpha16 assessed as calcium mobilization at 0.3 uM by FLIPR assay. (Calcium flux is commonly read through the fluorescence of an indicator in the cells.)

In assay [3] the target is Muscarinic acetylcholine receptor M3 (Homo sapiens) (UniProt P20309). As to the kind of experiment: Agonist activity at human muscarinic M3 acetylcholine receptor expressed in CHO cells assessed as calcium mobilization at 0.3 uM by FLIPR assay.
In assay [4] the target is T3, Muscarinic acetylcholine receptor M4 (Homo sapiens) (UniProt P08173).
T3 sequence (whole entry): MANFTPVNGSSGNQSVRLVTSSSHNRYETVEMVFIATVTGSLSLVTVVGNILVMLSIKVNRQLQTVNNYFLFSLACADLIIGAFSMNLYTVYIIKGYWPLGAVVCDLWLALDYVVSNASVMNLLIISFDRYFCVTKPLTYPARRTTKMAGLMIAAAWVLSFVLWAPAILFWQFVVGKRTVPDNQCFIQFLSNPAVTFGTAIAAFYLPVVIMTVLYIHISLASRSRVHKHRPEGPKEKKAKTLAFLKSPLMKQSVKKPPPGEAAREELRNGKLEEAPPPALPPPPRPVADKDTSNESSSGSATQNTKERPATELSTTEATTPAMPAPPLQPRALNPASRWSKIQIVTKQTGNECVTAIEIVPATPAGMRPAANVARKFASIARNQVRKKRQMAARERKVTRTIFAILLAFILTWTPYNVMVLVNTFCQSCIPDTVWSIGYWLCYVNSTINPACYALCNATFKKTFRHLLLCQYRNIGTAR
As to the kind of experiment: Partial agonist activity at human muscarinic M4 acetylcholine receptor expressed in CHO cells co-expressing Galpha16 assessed as calcium mobilization at 0.3 uM by FLIPR assay.

Assay [5] has as its target T4, Muscarinic acetylcholine receptor M5 (Homo sapiens) (UniProt P08912).
T4 sequence (whole entry): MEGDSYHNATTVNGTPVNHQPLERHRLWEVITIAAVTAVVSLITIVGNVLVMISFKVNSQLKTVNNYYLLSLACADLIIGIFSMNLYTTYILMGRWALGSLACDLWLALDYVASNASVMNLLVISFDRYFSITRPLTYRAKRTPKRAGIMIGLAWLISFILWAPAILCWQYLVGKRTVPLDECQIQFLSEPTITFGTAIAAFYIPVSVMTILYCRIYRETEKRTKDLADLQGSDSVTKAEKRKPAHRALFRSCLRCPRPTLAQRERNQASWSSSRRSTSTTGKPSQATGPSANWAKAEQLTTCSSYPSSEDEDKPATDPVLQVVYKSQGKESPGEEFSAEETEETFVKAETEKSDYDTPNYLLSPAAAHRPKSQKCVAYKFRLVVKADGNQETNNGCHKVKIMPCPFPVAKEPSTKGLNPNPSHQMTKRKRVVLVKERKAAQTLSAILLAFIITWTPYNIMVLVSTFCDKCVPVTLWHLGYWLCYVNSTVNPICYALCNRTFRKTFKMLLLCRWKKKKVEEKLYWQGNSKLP
As to the kind of experiment: Agonist activity at human muscarinic M5 acetylcholine receptor expressed in CHO cells assessed as calcium mobilization at 10 uM by FLIPR assay.

For assay [6], the target named is T3, Muscarinic acetylcholine receptor M4 (Homo sapiens). As to the kind of experiment: Partial agonist activity at human muscarinic M4 acetylcholine receptor expressed in CHO cells co-expressing Galpha16 assessed as calcium mobilization at 30 uM by FLIPR assay.

Chain of Muscarinic acetylcholine receptor M3 (Homo sapiens) (P20309 whole entry, looked up): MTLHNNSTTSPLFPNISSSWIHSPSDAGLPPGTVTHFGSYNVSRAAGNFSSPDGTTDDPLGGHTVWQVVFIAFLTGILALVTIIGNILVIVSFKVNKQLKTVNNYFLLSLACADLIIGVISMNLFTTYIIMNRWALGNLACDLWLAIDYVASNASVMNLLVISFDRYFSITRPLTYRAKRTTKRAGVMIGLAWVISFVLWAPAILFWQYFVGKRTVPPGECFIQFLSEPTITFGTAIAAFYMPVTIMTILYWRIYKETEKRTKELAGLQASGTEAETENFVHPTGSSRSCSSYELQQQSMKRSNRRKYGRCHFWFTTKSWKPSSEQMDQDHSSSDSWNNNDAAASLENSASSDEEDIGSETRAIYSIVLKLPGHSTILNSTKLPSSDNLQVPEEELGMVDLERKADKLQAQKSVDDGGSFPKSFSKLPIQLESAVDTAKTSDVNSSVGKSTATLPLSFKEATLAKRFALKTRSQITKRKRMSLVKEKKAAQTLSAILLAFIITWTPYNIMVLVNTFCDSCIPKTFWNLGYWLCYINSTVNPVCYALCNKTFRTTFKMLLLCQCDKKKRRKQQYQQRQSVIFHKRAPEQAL

On to `CCOC(=O)N1CCC(N2CCC(N3Cc4ccccc4NC3=O)CC2)CC1`, for which the Activity in assay [1] was 86%; in assay [2], 66%; in assay [3] it was 21%; in assay [4], 114%; in assay [5] it was 31%.

As for `CCOC(=O)N1CCC(CN2CC(N3Cc4ccccc4NC3=O)C2)CC1`, the Activity turned out to be 105% in assay [1], 17% in assay [2], 1% in assay [3] and 115% in assay [4].

As to `CCOC(=O)N1CCC(CN2CC[C@@H](N3Cc4ccccc4NC3=O)C2)CC1`, the Activity in assay [1] worked out at 95%; in assay [2], 53%; in assay [3], 2%; in assay [4] it was 91%; in assay [5] it was 3%.

On to `CCOC(=O)N1CCC(CN2CC[C@H](N3Cc4ccccc4NC3=O)C2)CC1`, for which the Activity in assay [1] turned out to be 62%; in assay [2] it was 2%; in assay [3] it was 3%; in assay [4], 30%.

On to `CCOC(=O)N1CCC(CN2CCC(N3Cc4ccccc4NC3=O)CC2)CC1`, for which the Activity is 82% in assay [1], 39% in assay [2], 7% in assay [3] and 66% in assay [4].

Turning to `CCOC(=O)N1[C@@H]2CC[C@H]1C[C@H](CN1CC(N3Cc4ccccc4NC3=O)C1)C2`, the Activity in assay [1] came out at 87%; in assay [2], 12%; in assay [3] it was 1%; in assay [4] it was 64%; in assay [6], 65%.

The record behind these values is ChEMBL document CHEMBL3632469, “Discovery of dihydroquinazolinone derivatives as potent, selective, and CNS-penetrant M(1) and M(4) muscarinic acetylcholine receptors agonists” (Bioorg Med Chem Lett, 2015).
